Experimental data taken from patent publication US9023821B2, “Use of MicroRNA for treating diseases associated with a dysfunction of the cilia in multiciliated epithelial cells” (Centre National de la Recherche Scientifique, priority 2009, dated 2015).

System: human airway epithelial cells (HAECs)
Test: High-throughput sequencing (HTS) of miRNAs at four stages of differentiation of HAECs
Settings: for Modulation (ratio of the level of intensity of expression in log2 in two stages of differentiation), D7 − D0 / Modulation (ratio of the level of intensity of expression in log2 in two stages of differentiation), FC − D7 / Modulation (ratio of the level of intensity of expression in log2 in two stages of differentiation), WD − D0 / Modulation (ratio of the level of intensity of expression in log2 in two stages of differentiation), WD − FC / Abundance (%), D0 / Level of intensity of expression in log2, D0 / Abundance (%), D7 / Level of intensity of expression in log2, D7 / Abundance (%), FC / Level of intensity of expression in log2, FC / Abundance (%), WD / Level of intensity of expression in log2, WD: HTS; for Abundance (%), D0: ALI-D0; for Level of intensity of expression in log2, D0: ALI-D0 (proliferation); for Abundance (%), D7: ALI-D7; for Level of intensity of expression in log2, D7: ALI-D7 (proliferation and polarization); for Abundance (%), FC: ALI-FC; for Level of intensity of expression in log2, FC: ALI-FC (start of ciliogenesis); for Abundance (%), WD: ALI-WD; for Level of intensity of expression in log2, WD: ALI-WD (wholly differentiated epithelium); for Level of intensity of expression in log2 At the differentiated stage (WD) measured in HTS: healthy human airway epithelial tissue
Excerpt: The total RNAs were extracted from HAECs cultivated at the air-liquid interface at four stages of differentiation: ALI-D0 (0 day), ALI-D7 (7 days), ALI-FC (during appearance of the first cilia at about 14 days) and ALI-WD (wholly differentiated at about 21 days). The cells are lysed in reagent with Trizol® (Invitrogen). The total RNAs containing small RNAs and microRNAs are purified on Qiagen RNEasy columns (Qiagen) according to the supplier's instructions.
The total RNAs containing small RNAs and microRNAs are isolated as before. The procedure is based on the Applied Biosystems Ligase-Enhanced Genome Detection technology (LEGenD™); the SOLiD™ Small RNA Expression kit (Applied Biosystems, France) was used. With this method it is possible to convert the small RNAs of a sample into a library of double-stranded DNA; it was developed by Applied Biosystems SOLiD™ System for a new generation of high-throughput sequencing.
The high-throughput sequencing of the microRNAs was carried out according to the supplier's recommendations. Briefly, the total RNAs containing the small RNAs are hybridized (65° C., 10 min, then at 16° C., 5 min) and ligated (16° C., 2-16 h in a thermocycler) with the Adaptor Mix A for producing a matrix for sequencing the 5′ end of the small RNAs, or with the Adaptor Mix B for sequencing the 3′ end. The samples are then reverse-transcribed (42° C., 30 min) to synthesize the complementary DNA (cDNA). The library of small RNAs is amplified by PCR and after migration on polyacrylamide gel the amplified small RNAs are cut out and extracted from the gel according to their size (length of about 105-150 bases, according to the supplier's instructions), eluted and resuspended in nuclease-free water. The concentration of nucleic acids is then measured and normalized before proceeding with preparation of the samples for sequencing.
For each microRNA sequenced, the number of sequences of the 5p strand and of the 3p strand of the microRNA was normalized to 10^6 sequences and converted to percentage abundance of expression for each of the microRNAs. The data were then normalized according to a linear model and an empirical Bayesian method using software R. For subsequent analyses, only the microRNAs were retained for which the percentage expression (or abundance) is greater than 1% of the total of the microRNAs in at least one culture condition, with a |Log2 Ratio| below 0.5 and an adjusted P-value below 0.05.

Row | Substance | Modulation (ratio of the level of intensity of expression in log2 in two stages of differentiation), D7 − D0 [log2] | Modulation (ratio of the level of intensity of expression in log2 in two stages of differentiation), FC − D7 [log2] | Modulation (ratio of the level of intensity of expression in log2 in two stages of differentiation), WD − D0 [log2] | Modulation (ratio of the level of intensity of expression in log2 in two stages of differentiation), WD − FC [log2] | Abundance (%), D0 [%] | Level of intensity of expression in log2, D0 [log2] | Abundance (%), D7 [%] | Level of intensity of expression in log2, D7 [log2] | Abundance (%), FC [%] | Level of intensity of expression in log2, FC [log2] | Abundance (%), WD [%] | Level of intensity of expression in log2, WD [log2] | Level of intensity of expression in log2 At the differentiated stage (WD) measured in HTS [log2]
1 | hsa-miR-449c: human miRNA, SEQ ID No. 201 (UAGGCAGUGUAUUGCUAGCGGCUGU; expressed or natural sequence; listed as Homo sapiens) | 2.59 | 7.44 | 9.44 | −0.59 | 0.00 | 1.54 | 0.00 | 4.13 | 0.32 | 11.57 | 0.20 | 10.98 | 10.98
2 | hsa-miR-1975: human miRNA, SEQ ID No. 15 (CCCCCACAACCGCGCUUGACUAGCU; expressed or natural sequence; listed as Homo sapiens) | 2.13 | 0.34 | 2.93 | 0.46 | 0.48 | 11.08 | 2.09 | 13.22 | 2.56 | 13.55 | 2.67 | 14.01 | 11.22
